Test results reported in patent US20250339051A1, “DYNAMIC CHEMICAL-EXCHANGE-SATURATION-TRANSFER (CEST) AGENT ENHANCED MRI USING DIRECT WATER SATURATION” (The Johns Hopkins University, priority 2024, published 2025).
Like-named read-outs stand apart in the source and are kept apart here.

Experiments:
[1] = tested on: brain tumor patients; assay: DS-DGE MRI at 3 T in brain tumor patients with D-Glc infusion; set-up: species or system human; settings: in vivo
Source text: Four brain tumor patients were studied (one with an IDH-wildtype glioblastoma, two with a grade 2 IDH-mutated astrocytoma, and one with ALK-mutated non-small-cell lung cancer metastases). The project was approved by the local Institutional Review Board, and each participant provided written informed consent. Participants were asked to fast six hours before the study, but clear liquids were permitted. Before the start of the MRI examination, blood was drawn to verify normal baseline glucose levels (3.9-7.0 mM).
Patients were examined on a 3 T Philips Elition RX system (Philips Healthcare, Best, the Netherlands). Pre- and post-contrast enhanced T1-MPRAGE, FLAIR, DS-DGE, DCE and DSC images were acquired T1-MPRAGE: TR/TE/FA=7.5 ms/3.5 ms/8°, FOV=212×212 mm^2, resolution=1.1×1.1×2.2 mm^3, inversion time=755 ms, acquisition time=1 min 46 s, and FLAIR: TR/TE=11,000/120 ms, FOV=212×212 mm^2 resolution=1.1×1.1×2.2 mm^3, inversion time=2800 ms, acquisition time=3 min 51 s.
DS-DGE images were acquired using ten consecutive 50-ms sinc-gaussian pulses (B1peak=0.5 μTtsat=0.5 s), followed by a whole-brain simultaneous multi-slice EPI readout (multi-band factor 3). A total of 27 slices with FOV of 208×208 mm^2 and a resolution of 2.2×2.2×4.4 mm^3 were acquired using TR/TE/FA=1200 ms/17 ms/52°. 32 frequencies were acquired in 38.2 s at offsets: ±[10 (2×), 5.0, 2.5, 2.0, 1.5, 1.2, 1.0, 0.80, 0.70, 0.60, 0.50, 0.40, 0.30, 0.20, 0.10] ppm. In total 40 dynamics (Z-spectra) were acquired. Approximately five minutes into the scan (after the 8th dynamic), D-Glc was administrated intravenously with a power-injector at a rate of 6.25 g/min using hospital-grade D50 glucose (D50, Hospira Inc., Lake Forest, IL; 35 g of D-Glc in 70 mL of water sterile solution prepared by the Johns Hopkins pharmacy), followed by a saline rinse. Total experiment duration was 25.5 min.
The dynamic DS spectrum signal intensities from each voxel were normalized using the average of the second of two acquisitions at ±10 ppm and then fitted to a Lorentzian line shape using the DL-based single Lorentzian fitting neural network (sLoFNet)^43. The linewidths, defined as FWHM in the DL fitting, were used to generate LW maps (in Hz) for each dynamic. The dynamic linewidth maps were rigid motion corrected using Elastix^48 and visually inspected for remaining motion artefacts.
A baseline was calculated by averaging the linewidth maps obtained before infusion. To remove outliers, baseline LWs greater or less than the average±2SD were discarded. LWbase was then calculated by averaging the remaining baseline LWs. Dynamic ΔLW images were obtained by subtracting LWbase from each linewidth dynamic image, LW(t), followed by normalization with LWbase:
Normalized area-under-the-curve (AUC) was calculated by subtracting LWbase from the average of dynamic LWs obtained from infusion start and through the dynamic scan (LWaverage), followed by normalization with LWbase:
Normalized AUC over the infusion block alone was also calculated. Both fitting and calculations were performed in Python.

[2] = cited from earlier work
[3] = tested on: brain tumor patients; settings: cited from earlier work
[4] = cited from earlier work; remark: listed apart in the source

O=C[C@H](O)[C@@H](O)[C@H](O)[C@H](O)CO [D-glucose]
ΔLW (DS linewidth change) ([1]; (ventricular) CSF, 35 g D-glucose infusion, 3 T): ~40%
ΔLW (DS linewidth change) ([1]; GM/WM, 35 g D-glucose infusion, 3 T): approximately 1%
ΔLW (DS linewidth change) ([1]; contrast enhanced peri-cavity infiltrative tumor region, recurrent IDH-wildtype glioblastoma patient, during infusion): approximately 15%
ΔLW (DS linewidth change) ([1]; different tumor types, 35 g D-glucose infusion, 3 T): 5-20%
LW change ([1]; white matter, lung cancer brain metastases patient): negligible
hydroxyl proton exchange rate ([2]; hydroxyl pool at 0.66 ppm, pH 6.8 (TUMOR EES)): 1500 Hz
hydroxyl proton exchange rate ([2]; hydroxyl pool at 0.66 ppm, pH 7.2, 37° C.): 2900 Hz
hydroxyl proton exchange rate ([2]; hydroxyl pool at 1.28 ppm, pH 6.8 (TUMOR EES)): 3100 Hz
hydroxyl proton exchange rate ([2]; hydroxyl pool at 1.28 ppm, pH 7.2, 37° C.): 6500 Hz
hydroxyl proton exchange rate ([2]; hydroxyl pool at 2.08 ppm, pH 6.8 (TUMOR EES)): 2500 Hz
hydroxyl proton exchange rate ([2]; hydroxyl pool at 2.08 ppm, pH 7.2, 37° C.): 5200 Hz
hydroxyl proton exchange rate ([2]; hydroxyl pool at 2.88 ppm, pH 6.8 (TUMOR EES)): 6000 Hz
hydroxyl proton exchange rate ([2]; hydroxyl pool at 2.88 ppm, pH 7.2, 37° C.): 14300 Hz
DGE MRI effect size ([3]; contrast enhanced tumor area, LGG and HGG patients, maximum dose 20 g of D-Glc in 100 mL, Bender et al.): ≤ 0.25%
DGE MRI effect size ([3]; glioblastoma, 3 T, Xu et al.): approximately 1.5%
DGE MRI effect size ([3]; low and high grade glioma enhancement areas, dose of 25 g, Mo et al.): 0.5-1.5%
DGE MRI signal increase after D-Glc infusion ([3]; metastases, Wu et al.): ≤ 10%
venous plasma blood glucose average increase ([4]; D-Glc dose of 25 g, N=11, previous DGE MRI study): 9.8 mM
increase in plasma blood glucose ([4]; maximum D-Glc dose of 25 g, previous DGE studies): up to 15 mM
